In ChEMBL document CHEMBL4842358, “Design, synthesis and biological evaluation of sphingosine-1-phosphate receptor 2 antagonists as potent 5-FU-resistance reversal agents for the treatment of colorectal cancer” (Eur J Med Chem, 2021):
Active and inactive are the calls of the source. The rule behind the calls is not given here.

Experiments:
[1] = target: T1, Sphingosine 1-phosphate receptor 2 (Homo sapiens, UniProt O95136); experiment: Binding affinity to S1PR2 (unknown origin) measured by surface plasmon resonance assay; settings: filed as antagonist
[2] = system: HCT-116; experiment: Reversal of 5-FU resistance against human HCT-116 cells overexpressing DPD assessed as inhibition of cell proliferation measured after 72 hrs in presence of 5-FU by MTT assay; assay type: functional, cell-based; settings: HCT-116, 72 h
[3] = Reversal of 5-FU resistance against human SW620/5-FU cells assessed as inhibition of cell proliferation measured after 72 hrs in presence of 5-FU by MTT assay; assay type: functional, cell-based
[4] = target: T1, Sphingosine 1-phosphate receptor 2; experiment: Binding affinity to S1PR2 (unknown origin) assessed as dissociation constant measured for 60 secs by surface plasmon resonance assay
[5] = system: NCM460; experiment: Cytotoxicity against human NCM460 cells assessed as cell viability measured after 72 hrs in presence of 5-FU by MTT assay; assay type: cell-based; settings: NCM460, 72 h
[6] = target: T1, Sphingosine 1-phosphate receptor 2; experiment: Binding affinity to S1PR2 (unknown origin) assessed as association constant measured for 60 secs by surface plasmon resonance assay; settings: filed as antagonist, time 60.0 sec
[7] = target: T1, Sphingosine 1-phosphate receptor 2; experiment: Antagonist activity at S1PR2 in human SW620/5-FU cells assessed as downregulation of DPD expression by western blot analysis; assay type: functional, cell-based; settings: filed as antagonist

T1 sequence (O95136 whole entry): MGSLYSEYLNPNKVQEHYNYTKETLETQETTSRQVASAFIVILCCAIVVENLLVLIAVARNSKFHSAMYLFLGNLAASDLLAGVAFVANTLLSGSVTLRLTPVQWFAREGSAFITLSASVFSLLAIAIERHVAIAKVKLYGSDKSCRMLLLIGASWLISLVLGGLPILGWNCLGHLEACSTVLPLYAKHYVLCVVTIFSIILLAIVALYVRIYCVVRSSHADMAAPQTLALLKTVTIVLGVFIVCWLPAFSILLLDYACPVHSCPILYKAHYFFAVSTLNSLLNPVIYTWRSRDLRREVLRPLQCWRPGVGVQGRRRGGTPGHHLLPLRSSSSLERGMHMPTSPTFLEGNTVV

SMILES	K [1]	EC50 [2] [µM]	EC50 [3] [µM]	Dissociation rate constant (koff) [4]	EC50 [5] [µM]	Ka [6]	inhibition [7]
O=C(Nc1cc(Cl)nc(Cl)c1)Nc1cc2ccccn2n1	1.46 10^-8M	5.13	2.49	1.16 10^-1/s	10.2	7.93 10^6/M/s	Active
O=C(Nc1ccnc(Cl)c1)Nc1cc(Cl)nc(Cl)c1	5.5 10^-6M	16.1	31.2	2.01 10^-1/s	55.3	3.65 10^4/M/s	–
O=C(NNc1nc(Nc2ccccc2)nc(N2CCCC2)n1)Nc1cc(Cl)nc(Cl)c1	1.86 10^-7M	23.2	31.9	1.33 10^-1/s	65.2	7.15 10^5/M/s	–
Cc1cc(NC(=O)Nc2cc(Cl)nc(Cl)c2)cc(C)n1	2.57 10^-8M	86.2	234	1.46 10^-1/s	576	5.69 10^6/M/s	–
O=C(NNc1nc(N2CCOCC2)c2ccn(C3CC3)c2n1)Nc1cc(Cl)nc(Cl)c1	2.17 10^-6M	449	436	1.33 10^-1/s	549	6.12 10^4/M/s	–
COc1ccc(-c2ccc3cc(NC(=O)Nc4cc(Cl)nc(Cl)c4)nn3c2)cc1	1.22 10^-8M	5.35	9.62	1.12 10^-1/s	8.35	9.12 10^6/M/s	Active
CN(C)c1nc(NNC(=O)Nc2cc(Cl)nc(Cl)c2)nc2c1ccn2C	1.85 10^-6M	41.5	48.2	1.02 10^-1/s	58.5	7.55 10^4/M/s	–
O=C(Nc1cc(Cl)nc(Cl)c1)Nc1cc2ccc(Br)cn2n1	2.02 10^-8M	5.26	11.7	0.168 s⁻¹	8.94	8.31 10^7/M/s	Active
CCOc1cc(NC(=O)Nc2cc(Cl)nc(Cl)c2)cc(Cl)n1	5.2 10^-7M	6.13	8.15	1.02 10^-1/s	25.3	1.96 10^5/M/s	Active
O=C(Nc1cc(Cl)nc(Cl)c1)Nc1cc2ccc(-c3ccccc3)cn2n1	4.38 10^-8M	5.13	9.25	2.01 10^-1/s	8.05	4.59 10^6/M/s	Active
O=C(Nc1cc(Cl)nc(Cl)c1)Nc1cc(Cl)nc(OC2CCCC2)c1	3.99 10^-7M	5.12	6.15	1.79 10^-1/s	21.4	4.49 10^5/M/s	Active
CC(C)Oc1cc(NC(=O)Nc2cc(Cl)nc(Cl)c2)cc(Cl)n1	1.3 10^-7M	5.23	5.17	1.19 10^-1/s	21.1	9.14 10^5/M/s	Active
Cc1cc(NC(=O)Nc2cc(Cl)nc(Cl)c2)n(C)n1	3.3 10^-6M	94.2	67.2	1.77 10^-1/s	134	5.36 10^4/M/s	–
CNc1cc(C)nc(NNC(=O)Nc2cc(Cl)nc(Cl)c2)n1	4.24 10^-6M	23.4	122	2.36 10^-1/s	65.3	5.56 10^4/M/s	–
O=C(Nc1cc(Cl)cc(Cl)c1)Nc1cc(Cl)nc(Cl)c1	3.56 10^-6M	11.4	12.2	1.16 10^-1/s	55.4	3.26 10^4/M/s	Active
O=c1[nH]cc(F)c(=O)[nH]1 [FLUOROURACIL]	–	> 1000	> 1000	–	43.3	–	–
Cn1ccc2c(-c3ccccc3)nc(NNC(=O)Nc3cc(Cl)nc(Cl)c3)nc21	2.61 10^-6M	660	528	1.36 10^-1/s	683	5.21 10^4/M/s	–
COc1cc(NC(=O)Nc2cc(Cl)nc(Cl)c2)cc(Cl)n1	6.82 10^-7M	11.2	14.2	2.19 10^-1/s	33.2	3.21 10^5/M/s	Active
COc1c(Cl)cc(NC(=O)Nc2cc(Cl)nc(Cl)c2)cc1Cl	5 10^-8M	41.5	8.25	3.12 10^-1/s	27.3	6.24 10^6/M/s	Active
CN1CCN(C(=O)Nc2cc(Cl)nc(Cl)c2)CC1	5.35 10^-7M	142	548	1.06 10^-1/s	521	1.98 10^5/M/s	–
